Results reported in paper PMC3025903 (Molecular Pain, 2010).

Assays:
[1] = system: Sprague-Dawley rats; conditions: rat, in vivo, iv; SEM
[2] = molecular target: T1, human N-type Ca^2+ channels stably expressed in HEK293 cells (C2D7 cells) (Homo sapiens, UniProt Q00975); experiment: cell-based
T1 construct: expressed in transfected cells

[3] = system: Sprague-Dawley rats; conditions: rat, in vivo, iv

T1 sequence (Q00975 whole entry, looked up): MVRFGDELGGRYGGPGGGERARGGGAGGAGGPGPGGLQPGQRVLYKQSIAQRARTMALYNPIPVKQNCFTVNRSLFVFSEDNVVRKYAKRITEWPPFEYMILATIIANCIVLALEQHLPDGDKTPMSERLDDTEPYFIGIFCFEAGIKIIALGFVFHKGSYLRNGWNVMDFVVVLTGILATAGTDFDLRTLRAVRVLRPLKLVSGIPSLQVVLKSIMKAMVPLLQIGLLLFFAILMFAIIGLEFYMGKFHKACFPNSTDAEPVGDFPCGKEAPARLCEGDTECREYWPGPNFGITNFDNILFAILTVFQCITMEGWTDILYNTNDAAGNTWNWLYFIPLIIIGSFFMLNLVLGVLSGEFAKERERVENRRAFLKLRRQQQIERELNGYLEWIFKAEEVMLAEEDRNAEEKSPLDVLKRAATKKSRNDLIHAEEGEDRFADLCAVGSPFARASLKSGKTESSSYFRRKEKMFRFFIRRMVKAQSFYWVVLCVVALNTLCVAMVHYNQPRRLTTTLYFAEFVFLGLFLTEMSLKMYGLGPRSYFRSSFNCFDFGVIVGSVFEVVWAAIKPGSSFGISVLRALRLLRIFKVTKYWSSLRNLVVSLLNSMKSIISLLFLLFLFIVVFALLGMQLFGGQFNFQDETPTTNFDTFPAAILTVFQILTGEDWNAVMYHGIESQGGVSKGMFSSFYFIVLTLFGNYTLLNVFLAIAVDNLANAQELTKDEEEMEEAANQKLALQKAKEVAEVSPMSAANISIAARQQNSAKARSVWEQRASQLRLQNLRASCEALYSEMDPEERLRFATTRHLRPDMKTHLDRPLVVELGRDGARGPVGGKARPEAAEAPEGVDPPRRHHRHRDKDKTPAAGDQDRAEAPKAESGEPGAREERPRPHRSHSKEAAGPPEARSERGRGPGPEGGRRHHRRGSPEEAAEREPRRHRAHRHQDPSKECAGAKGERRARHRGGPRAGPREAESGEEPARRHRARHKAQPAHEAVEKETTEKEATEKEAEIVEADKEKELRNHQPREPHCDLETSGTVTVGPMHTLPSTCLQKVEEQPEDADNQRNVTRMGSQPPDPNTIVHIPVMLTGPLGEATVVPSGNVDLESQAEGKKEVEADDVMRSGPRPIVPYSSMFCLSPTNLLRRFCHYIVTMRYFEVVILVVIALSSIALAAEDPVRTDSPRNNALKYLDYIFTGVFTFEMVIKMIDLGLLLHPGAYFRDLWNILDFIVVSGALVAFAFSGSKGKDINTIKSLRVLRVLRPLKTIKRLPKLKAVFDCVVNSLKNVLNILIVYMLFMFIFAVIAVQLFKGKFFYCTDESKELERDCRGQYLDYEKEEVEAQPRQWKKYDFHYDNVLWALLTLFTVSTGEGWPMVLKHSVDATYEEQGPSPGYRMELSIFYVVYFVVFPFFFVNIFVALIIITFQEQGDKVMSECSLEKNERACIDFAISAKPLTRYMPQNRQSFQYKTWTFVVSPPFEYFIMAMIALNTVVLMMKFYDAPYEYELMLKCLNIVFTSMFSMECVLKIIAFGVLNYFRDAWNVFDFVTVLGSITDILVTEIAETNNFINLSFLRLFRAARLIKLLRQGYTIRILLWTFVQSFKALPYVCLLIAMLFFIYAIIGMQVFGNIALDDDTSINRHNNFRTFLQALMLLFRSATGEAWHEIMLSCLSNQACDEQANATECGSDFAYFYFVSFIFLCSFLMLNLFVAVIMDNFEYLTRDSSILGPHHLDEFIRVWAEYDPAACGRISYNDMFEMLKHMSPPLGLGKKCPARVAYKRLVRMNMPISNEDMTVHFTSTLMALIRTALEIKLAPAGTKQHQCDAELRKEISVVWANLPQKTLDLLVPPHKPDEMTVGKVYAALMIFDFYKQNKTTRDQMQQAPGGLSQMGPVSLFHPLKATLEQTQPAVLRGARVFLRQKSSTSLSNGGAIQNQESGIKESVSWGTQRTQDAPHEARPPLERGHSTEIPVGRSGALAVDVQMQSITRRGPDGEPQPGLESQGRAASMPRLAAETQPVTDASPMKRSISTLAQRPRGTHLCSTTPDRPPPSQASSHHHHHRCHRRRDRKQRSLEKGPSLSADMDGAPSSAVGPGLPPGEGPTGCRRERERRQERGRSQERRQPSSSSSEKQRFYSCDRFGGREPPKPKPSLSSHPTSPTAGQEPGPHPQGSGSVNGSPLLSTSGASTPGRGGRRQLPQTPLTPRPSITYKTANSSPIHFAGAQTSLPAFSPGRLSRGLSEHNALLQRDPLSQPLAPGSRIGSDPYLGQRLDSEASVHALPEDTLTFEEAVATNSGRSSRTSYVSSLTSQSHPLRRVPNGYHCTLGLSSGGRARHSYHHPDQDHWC

Structure (SMILES)	mean arterial pressure after 60 min [1] [mmHg]	mean arterial pressure within 3 min after injection [1] [mmHg]	IC50 [2] [nM]	block of N-type Ca2+ currents [2] [%]	steady-state level to which the currents recovered after washout [2] [%]	mean blood pressure 5 min after administration [3] [mmHg]	mean blood pressure after 5 h [3]
CC[C@H](C)[C@@H]1NC(=O)[C@H](CCCNC(=N)N)NC(=O)[C@H](CO)NC(=O)[C@@H]2CSSC[C@@H]3NC(=O)[C@H](CO)NC(=O)CNC(=O)[C@H]([C@@H](C)O)NC(=O)[C@H](CSSC[C@H](N)C(=O)N[C@@H](CCCCN)C(=O)NCC(=O)N[C@@H]([C@@H](C)O)C(=O)NCC(=O)N[C@@H](CCCCN)C(=O)N[C@@H](CO)C(=O)N2)NC(=O)[C@H](CSSC[C@@H](C(N)=O)NC(=O)[C@H](CCCCN)NC(=O)CNC(=O)[C@H](CO)NC(=O)[C@H](CCCNC(=N)N)NC3=O)NC(=O)[C@H](CC(N)=O)NC(=O)[C@H](Cc2ccc(O)cc2)NC(=O)[C@H](C)NC1=O [CTx-FVIA, ω-conotoxin FVIA]	79.7 ± 4.1	56.4 ± 1.0	11.5 ± 1.4	91.25 ± 1.8	78.4 ± 5.8	78.9 ± 3.1	nearly recovered
CSCC[C@@H]1NC(=O)[C@H](CC(C)C)NC(=O)[C@H](CCCNC(=N)N)NC(=O)[C@H](CO)NC(=O)[C@@H]2CSSC[C@@H]3NC(=O)[C@H](CO)NC(=O)CNC(=O)[C@H]([C@@H](C)O)NC(=O)[C@H](CSSC[C@H](N)C(=O)N[C@@H](CCCCN)C(=O)NCC(=O)N[C@@H](CCCCN)C(=O)NCC(=O)N[C@@H](C)C(=O)N[C@@H](CCCCN)C(=O)N2)NC(=O)[C@H](CSSC[C@@H](C(N)=O)NC(=O)[C@H](CCCCN)NC(=O)CNC(=O)[C@H](CO)NC(=O)[C@H](CCCNC(=N)N)NC3=O)NC(=O)[C@H](CC(=O)O)NC(=O)[C@H](Cc2ccc(O)cc2)NC1=O [CTx-MVIIA, ω-Conotoxin (CTx)-MVIIA, reference compound]	65.3 ± 1.9	57.3 ± 3.1		87.5 ± 1.9	19.8 ± 3.8	77.5 ± 1.7	87.4 ± 2.6 mmHg
